Results from ChEMBL document CHEMBL1955772, “Cytotoxic terpenoids from Juglans sinensis leaves and twigs” (Bioorg Med Chem Lett, 2012).

How the values were obtained:
MCF7 = test: Cytotoxicity against human MCF7 cells after 24 hrs by MTS assay; type: functional, cell-based; details: MCF7, 24 h
[1] = Cytotoxicity against human U87MG cells after 24 hrs by MTS assay; type: functional, cell-based, U-87MG ATCC; details: U-87 MG
HEp-2 = test: Cytotoxicity against human Hep2 cells after 24 hrs by MTS assay; type: functional, cell-based; details: HEp-2, 24 h
B16-F10 = test: Cytotoxicity against mouse B16F10 cells after 24 hrs by MTS assay; type: functional, cell-based; details: B16-F10, 24 h

SMILES | IC50 (MCF7) | IC50 [1] | IC50 (HEp-2) | IC50 (B16-F10)
C[C@H]1[C@H](C)CC[C@]2(C(=O)O[C@@H]3O[C@H](CO)[C@@H](O)[C@H](O)[C@H]3O)CC[C@]3(C)C(=CC[C@@H]4[C@@]5(C)C[C@@H](O)[C@@H](O)[C@@](C)(CO)[C@@H]5CC[C@]43C)[C@H]12 | > 10 µM | > 10 µM | > 10 µM | > 10 µM
CC(C)(O[C@@H]1O[C@H](CO)[C@@H](O)[C@H](O)[C@H]1O)[C@@H]1CC[C@@]2(C)CCC=C(CO)[C@@H]2C1 | > 10 µM | > 10 µM | > 10 µM | > 10 µM
CC(C)(O)[C@@H]1C[C@H]2[C@@](C)(C[C@@H]3C[C@@]32C)C[C@@H]1O | 1.81 µM | 1.13 µM | 4.22 µM | > 10 µM
CC(C)(O)[C@@H]1C[C@H]2[C@](C)(CC1=O)C[C@@H]1C[C@@]12C | 4.11 µM | 1.16 µM | 5.25 µM | 0.3 µM
CO[C@@H]1O[C@@]2(CO)CC[C@@]13CC[C@]1(C)[C@H](C[C@@H](O)[C@@H]4[C@@]5(C)CC[C@H](O)[C@](C)(CO)[C@@H]5CC[C@]41C)[C@@H]3[C@]2(C)O (relative stereo) | 1.25 µM | 3.29 µM | 5.52 µM | 1.53 µM
CC1(C)C=C2[C@H]3CC[C@@H]4[C@@]5(C)[C@@H](O)C[C@H](O)C(C)(C)[C@@H]5CC[C@@]4(C)[C@]3(C)CC[C@@]2(C)CC1 (relative stereo) | 3.86 µM | 1.31 µM | 5.4 µM | 0.3 µM
CC(C)(O)[C@@H]1C[C@H]2[C@@](C)(C[C@@H]3C[C@@]32C)C[C@H]1O (relative stereo) | > 10 µM | > 10 µM | > 10 µM | > 10 µM
